Test results published in PubChem BioAssay AID1918930 (Molecular Pharmacology Branch, DTP, NCI, 2023).
pIC50: −log10 of the molar value. Values joined by “and” are separate entries in the source; they are usually repeats but may differ in a detail not shown here. Equal values may be shown once.

System: 233499-124-R-J3-PDC complex spheroid viability, % test/control
Test: Anticancer human tumor 233499-124-R-J3-PDC patient-derived colon adenocarcinoma cell line growth inhibition
Conditions: for viability, T/C: stronger effect = lower value
Source text: Multicellular complex tumor spheroid response to LSD1 Inhibitor Iadademstat in combination with a variety of drugs and investigational agents in selected tumor cell lines
The current study was undertaken to assess response to LSD1 inhibitors in combination with standard-of-care drugs and investigational agents in solid tumor complex spheroid models as well as in the K-562 leukemia. Complex spheroids include a stromal component modeled by human endothelial cells (HUVEC) and fibroblasts modeled by human mesenchymal stem cells (MSCs). The concentration ranges selected for each drug and investigational agent were based upon clinically achievable concentrations if the clinical Cmax of the agent was known.
Compounds. The drugs and investigational agents used in this study are listed on Table 1. All of the agents used, including staurosporine (NSC755774) and gemcitabine (NSC613327), were obtained from the Developmental Therapeutics Program, NCI. FDA-approved anticancer drugs are available from the NCI at http://dtp.nci.nih.gov/branches/dscb/oncology_drugset_explanation.html. Drugs and investigational agents were >95% pure by proton nuclear magnetic resonance (NMR) and liquid chromatography/mass spectrometry (LC/MS). Stock solutions were prepared at 400x in DMSO, stored at -70 degrees C, and diluted in fresh medium prior to their use. The final concentration of DMSO in cell culture wells never exceeded 0.25% (v/v). The FDA-approved anticancer drug set is available from the Developmental Therapeutics Program at https://dtp.cancer.gov/organization/dscb/obtaining/available_plates.htm. All drugs and investigational agents were tested over a range starting from a high concentration at or near the clinical Cmax and decreasing in half-log increments. If the clinical Cmax for an agent had not been determined, the highest concentration tested was 10 microM.
Cell Lines. The patient-derived cancer cell (PDC) lines: 292921-168-R-J2-PDC, K24384-001-R-PDC, and 521955-158-R2-J5-PDC pancreatic carcinomas, 556581-035-R-J1 ovarian carcinoma, 324938-238-R-J1-PDC, 855422-203-R-J1-PDC and 883617-216-R-J1-PDC urothelial bladder carcinomas, 743489-274-T-PDC renal cell carcinoma, 138582-R-J1 Merkel cell tumor, K60290-347-R-J1 and K57222-313-R-J1-PDC glioblastomas, 653999-131-R-J2-PDC, LG0703-F948-PDC, and 349418-098-R-PDC non-small cell lung carcinomas, 885512-296-R-J2-PDC, 171881-019-R-J1-PDC breast carcinomas and 186277-243-T-J2-PDC and 233499-124-R-J2-PDC colon carcinomas were obtained from the NCI Patient-Derived Models Repository (PDMR, https://pdmr.cancer.gov). The established cell lines NCI/ADR-RES (RRID:CVCL_14520 and OVCAR-5 (RRID:CVCL_1628) ovarian carcinomas, 786-O (RRID:CVCL_1051) and A498 (RRID:CVCL_A498) renal cell carcinoma, NCI-H211 (ATCC, cat. CRL-5824; RRID:CVCL_1529), NCI-H196 (ATCC, cat. CRL-5823, RRID:CVCL_1509), SW 1271 (ATCC, cat. CRL-2177, RRID:CVCL_1716) and NCI-H1876 (ATCC, cat. CRL-5902, RRID:CVCL_1503) small cell lung carcinomas, MDA-MB-231 (RRID:CVCL_0062) and MDA-MB-468 (RRID:CVCL_0419)breast carcinomas (10-12). Pooled donor human umbilical vein endothelial cells (HUVEC, Lonza, cat. CC-2519) and human mesenchymal stem cells (hMSC, Lonza, cat. PT-2501) were purchased from Lonza (Walkersville, MD).
Cell Culture. All cells were maintained in an incubator at 37 degrees C and 5% CO2 with 95% humidity. The PDC lines were cultured according to standard operating procedures established by the NCI PDMR (https://pdmr.cancer.gov). Briefly all PDCs were thawed and cultured in Matrigel-coated flasks prepared with a working solution of 1X Ham's F-12 nutrient mix, without supplementation (Invitrogen, Waltham, MA, cat. 11765054), 100 U/mL penicillin-streptomycin (Invitrogen, cat. 15140122), and 2.5% Matrigel (Corning Inc., Corning, NY, cat. 354248) for the first three passages. […]

[1] = curve of first compound, second compound 0.1 µM
[2] = curve of first compound, second compound 0.316 µM
[3] = curve of first compound, second compound 1 µM
[4] = curve of first compound, second compound 3.16 µM
[5] = curve of first compound, second compound 10 µM
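Also: spheroids exposed to agents for one week before readout.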

SMILES: NS(=O)(=O)OCC1CC(n2ccc3c(NC4CCc5ccccc54)ncnc32)CC1O (configuration not stated) + NC1CC1c1ccc(-c2cccc(O)c2)cc1
- pIC50 [1]: 7.33
- pIC50 [2]: 7.23
- pIC50 [3]: 7.37
- pIC50 [4]: 7.28
- pIC50 [5]: 7.33
- viability, T/C (second compound 0.1 µM, first compound 0.00949 µM): 92.5%
- viability, T/C (second compound 0.1 µM, first compound 0.03 µM): 63.6%
- viability, T/C (second compound 0.1 µM, first compound 0.0949 µM): 28.6%
- viability, T/C (second compound 0.1 µM, first compound 0.3 µM): 6.14%
- viability, T/C (second compound 0.1 µM, first compound 0.949 µM): 3.11%
- viability, T/C (second compound 0.1 µM, first compound 3 µM): 2.93%
- viability, T/C (second compound 0.316 µM, first compound 0.00949 µM): 100%
- viability, T/C (second compound 0.316 µM, first compound 0.03 µM): 76.9%
- viability, T/C (second compound 0.316 µM, first compound 0.0949 µM): 31.2%
- viability, T/C (second compound 0.316 µM, first compound 0.3 µM): 5.03%
- viability, T/C (second compound 0.316 µM, first compound 0.949 µM): 4.27%
- viability, T/C (second compound 0.316 µM, first compound 3 µM): 3.91%
- viability, T/C (second compound 1 µM, first compound 0.00949 µM): 92.3%
- viability, T/C (second compound 1 µM, first compound 0.03 µM): 59.1%
- viability, T/C (second compound 1 µM, first compound 0.0949 µM): 28.5%
- viability, T/C (second compound 1 µM, first compound 0.3 µM): 9.59%
- viability, T/C (second compound 1 µM, first compound 0.949 µM): 4.05%
- viability, T/C (second compound 1 µM, first compound 3 µM): 3.47%
- viability, T/C (second compound 3.16 µM, first compound 0.00949 µM): 90.8%
- viability, T/C (second compound 3.16 µM, first compound 0.03 µM): 68.8%
- viability, T/C (second compound 3.16 µM, first compound 0.0949 µM): 29.9%
- viability, T/C (second compound 3.16 µM, first compound 0.3 µM): 9.96%
- viability, T/C (second compound 3.16 µM, first compound 0.949 µM): 4.13%
- viability, T/C (second compound 3.16 µM, first compound 3 µM): 3.43%
- viability, T/C (second compound 10 µM, first compound 0.00949 µM): 84%
- viability, T/C (second compound 10 µM, first compound 0.03 µM): 63.9%
- viability, T/C (second compound 10 µM, first compound 0.0949 µM): 27.1%
- viability, T/C (second compound 10 µM, first compound 0.3 µM): 8.93%
- viability, T/C (second compound 10 µM, first compound 0.949 µM): 5.35%
- viability, T/C (second compound 10 µM, first compound 3 µM): 2.93%

SMILES: COc1cc(C2c3cc4c(cc3C(OC3OC5COC(C)OC5C(O)C3O)C3COC(=O)C23)OCO4)cc(OC)c1O (configuration not stated)
- viability, T/C (compound 0.00949 µM): 90.2% and 92.1%
- viability, T/C (compound 0.03 µM): 91.5% and 80.9%
- viability, T/C (compound 0.0949 µM): 97.4% and 88.9%
- viability, T/C (compound 0.3 µM): 89% and 59.5%
- viability, T/C (compound 0.949 µM): 65.2% and 53.7%
- viability, T/C (compound 3 µM): 59% and 47.7%
- pIC50 (curve of compound): < 5.52

SMILES: Cn1ncnc1C1c2n[nH]c(=O)c3cc(F)cc(c23)NC1c1ccc(F)cc1 (configuration not stated) + NC1CCC(NC2CC2c2ccccc2)CC1
- pIC50 [1]: < 7.00
- pIC50 [2]: < 7.00
- pIC50 [3]: < 7.00
- pIC50 [4]: < 7.00
- pIC50 [5]: < 7.00
- viability, T/C (second compound 0.1 µM, first compound 0.000316 µM): 103%
- viability, T/C (second compound 0.1 µM, first compound 0.001 µM): 99.2%
- viability, T/C (second compound 0.1 µM, first compound 0.00316 µM): 94.4%
- viability, T/C (second compound 0.1 µM, first compound 0.01 µM): 104%
- viability, T/C (second compound 0.1 µM, first compound 0.0316 µM): 96.3%
- viability, T/C (second compound 0.1 µM, first compound 0.1 µM): 77.8%
- viability, T/C (second compound 0.316 µM, first compound 0.000316 µM): 113%
- viability, T/C (second compound 0.316 µM, first compound 0.001 µM): 110%
- viability, T/C (second compound 0.316 µM, first compound 0.00316 µM): 100%
- viability, T/C (second compound 0.316 µM, first compound 0.01 µM): 102%
- viability, T/C (second compound 0.316 µM, first compound 0.0316 µM): 106%
- viability, T/C (second compound 0.316 µM, first compound 0.1 µM): 110%
- viability, T/C (second compound 1 µM, first compound 0.000316 µM): 83.8%
- viability, T/C (second compound 1 µM, first compound 0.001 µM): 87.1%
- viability, T/C (second compound 1 µM, first compound 0.00316 µM): 78.1%
- viability, T/C (second compound 1 µM, first compound 0.01 µM): 87.5%
- viability, T/C (second compound 1 µM, first compound 0.0316 µM): 70.7%
- viability, T/C (second compound 1 µM, first compound 0.1 µM): 97%
- viability, T/C (second compound 3.16 µM, first compound 0.000316 µM): 83%
- viability, T/C (second compound 3.16 µM, first compound 0.001 µM): 85.7%
- viability, T/C (second compound 3.16 µM, first compound 0.00316 µM): 83.6%
- viability, T/C (second compound 3.16 µM, first compound 0.01 µM): 81.6%
- viability, T/C (second compound 3.16 µM, first compound 0.0316 µM): 76.1%
- viability, T/C (second compound 3.16 µM, first compound 0.1 µM): 79.1%
- viability, T/C (second compound 10 µM, first compound 0.000316 µM): 75.7%
- viability, T/C (second compound 10 µM, first compound 0.001 µM): 73.4%
- viability, T/C (second compound 10 µM, first compound 0.00316 µM): 73.4%
- viability, T/C (second compound 10 µM, first compound 0.01 µM): 80.9%
- viability, T/C (second compound 10 µM, first compound 0.0316 µM): 65.1%
- viability, T/C (second compound 10 µM, first compound 0.1 µM): 68.5%
